According to the supplement of paper PMC10307832:

How the values were obtained:
Test in all cases: relative viability (nuclei count vs DMSO), 5 days (fraction); higher = more cells survive
201T = system: 201T
Method in brief: (§1)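 Each reported value is a median over duplicate plates. It expresses relative viability: treated-well nuclei count divided by vehicle-well nuclei count. Lung cancer cell lines in 1536-well plates were dosed by pin tool a day after seeding, alone with one drug or with a fixed anchor-drug dose plus five library-drug doses (not always all listed) in √10 steps, and nuclei were counted after 5 days.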

NCI-H520 = system: NCI-H520
Method in brief: as §1

NCI-H441 = system: NCI-H441
Method in brief: as §1

LOU-NH91 = system: LOU-NH91
Method in brief: as §1

NCI-H647 = system: NCI-H647
Method in brief: as §1

NCI-H322M = system: NCI-H322M
Method in brief: as §1

NCI-H1563 = system: NCI-H1563
Method in brief: as §1

EPLC-272H = system: EPLC-272H
Method in brief: as §1

NCI-H2170 = system: NCI-H2170
Method in brief: as §1

PC-14 = system: PC-14
Method in brief: as §1

NCI-H3122 = system: NCI-H3122
Method in brief: as §1

H3255 = system: H3255
Method in brief: as §1

UMC-11 = system: UMC-11
Method in brief: as §1

COR-L23 = system: COR-L23
Method in brief: as §1

HCC-15 = system: HCC-15
Method in brief: as §1

NCI-H2405 = system: NCI-H2405
Method in brief: as §1

NCI-H2023 = system: NCI-H2023
Method in brief: as §1

NCI-H2347 = system: NCI-H2347
Method in brief: as §1

NCI-H1734 = system: NCI-H1734
Method in brief: as §1

NCI-H1650 = system: NCI-H1650
Method in brief: as §1

SMILES: O=c1cc(N2CCOCC2)oc2c(-c3cccc4c3sc3ccccc34)cccc12 + C[C@@H](Oc1cc(-c2cnn(C3CCNCC3)c2)cnc1N)c1c(Cl)ccc(F)c1Cl [Crizotinib] (partner 1 µM)
- relative viability (201T; first compound 0.01 µM): 1
- relative viability (201T; first compound 0.03162 µM): 1.01
- relative viability (201T; first compound 0.1 µM): 0.981
- relative viability (201T; first compound 0.3162 µM): 1.01
- relative viability (201T; first compound 1 µM): 1.03
- relative viability (NCI-H520; first compound 0.01 µM): 0.824
- relative viability (NCI-H520; first compound 0.03162 µM): 0.739
- relative viability (NCI-H520; first compound 0.1 µM): 1.04
- relative viability (NCI-H520; first compound 0.3162 µM): 0.697
- relative viability (NCI-H520; first compound 1 µM): 0.825
- relative viability (NCI-H441; first compound 0.01 µM): 0.841
- relative viability (NCI-H441; first compound 0.03162 µM): 0.785
- relative viability (NCI-H441; first compound 0.1 µM): 1.09
- relative viability (NCI-H441; first compound 0.3162 µM): 0.679
- relative viability (NCI-H441; first compound 1 µM): 0.756
- relative viability (LOU-NH91; first compound 0.01 µM): 0.705
- relative viability (LOU-NH91; first compound 0.03162 µM): 0.695
- relative viability (LOU-NH91; first compound 0.1 µM): 0.717
- relative viability (LOU-NH91; first compound 0.3162 µM): 0.738
- relative viability (LOU-NH91; first compound 1 µM): 0.698
- relative viability (NCI-H647; first compound 0.01 µM): 1.12
- relative viability (NCI-H647; first compound 0.03162 µM): 1.23
- relative viability (NCI-H647; first compound 0.1 µM): 1.08
- relative viability (NCI-H647; first compound 0.3162 µM): 0.949
- relative viability (NCI-H647; first compound 1 µM): 0.939
- relative viability (NCI-H322M; first compound 0.01 µM): 0.94
- relative viability (NCI-H322M; first compound 0.03162 µM): 0.842
- relative viability (NCI-H322M; first compound 0.3162 µM): 0.943
- relative viability (NCI-H322M; first compound 1 µM): 0.84
- relative viability (NCI-H1563; first compound 0.01 µM): 0.809
- relative viability (NCI-H1563; first compound 0.03162 µM): 0.795
- relative viability (NCI-H1563; first compound 0.1 µM): 0.848
- relative viability (NCI-H1563; first compound 0.3162 µM): 0.711
- relative viability (NCI-H1563; first compound 1 µM): 0.82
- relative viability (EPLC-272H; first compound 0.01 µM): 0.909
- relative viability (EPLC-272H; first compound 0.03162 µM): 1.07
- relative viability (EPLC-272H; first compound 0.3162 µM): 0.937
- relative viability (EPLC-272H; first compound 1 µM): 0.896
- relative viability (NCI-H2170; first compound 0.01 µM): 1.24
- relative viability (NCI-H2170; first compound 0.03162 µM): 1.17
- relative viability (NCI-H2170; first compound 0.1 µM): 1.24
- relative viability (NCI-H2170; first compound 0.3162 µM): 1.12
- relative viability (NCI-H2170; first compound 1 µM): 1.17
- relative viability (PC-14; first compound 0.01 µM): 0.906
- relative viability (PC-14; first compound 0.03162 µM): 0.82
- relative viability (PC-14; first compound 0.1 µM): 0.85
- relative viability (PC-14; first compound 0.3162 µM): 0.843
- relative viability (PC-14; first compound 1 µM): 0.795
- relative viability (NCI-H3122; first compound 0.01 µM): 0.269
- relative viability (NCI-H3122; first compound 0.03162 µM): 0.273
- relative viability (NCI-H3122; first compound 0.1 µM): 0.274
- relative viability (NCI-H3122; first compound 0.3162 µM): 0.297
- relative viability (NCI-H3122; first compound 1 µM): 0.284
- relative viability (H3255; first compound 0.01 µM): 0.871
- relative viability (H3255; first compound 0.03162 µM): 1.05
- relative viability (H3255; first compound 0.1 µM): 0.971
- relative viability (H3255; first compound 0.3162 µM): 0.926
- relative viability (H3255; first compound 1 µM): 0.769
- relative viability (UMC-11; first compound 0.01 µM): 0.69
- relative viability (UMC-11; first compound 0.03162 µM): 0.648
- relative viability (UMC-11; first compound 0.1 µM): 0.592
- relative viability (UMC-11; first compound 0.3162 µM): 0.631
- relative viability (UMC-11; first compound 1 µM): 0.565
- relative viability (COR-L23; first compound 0.01 µM): 0.62
- relative viability (COR-L23; first compound 0.03162 µM): 0.732
- relative viability (COR-L23; first compound 0.1 µM): 0.819
- relative viability (COR-L23; first compound 0.3162 µM): 0.638
- relative viability (COR-L23; first compound 1 µM): 0.597
- relative viability (HCC-15; first compound 0.01 µM): 0.807
- relative viability (HCC-15; first compound 0.03162 µM): 0.846
- relative viability (HCC-15; first compound 0.1 µM): 0.879
- relative viability (HCC-15; first compound 0.3162 µM): 0.773
- relative viability (HCC-15; first compound 1 µM): 0.764
- relative viability (NCI-H2405; first compound 0.01 µM): 0.814
- relative viability (NCI-H2405; first compound 0.03162 µM): 0.856
- relative viability (NCI-H2405; first compound 0.1 µM): 0.915
- relative viability (NCI-H2405; first compound 0.3162 µM): 0.849
- relative viability (NCI-H2405; first compound 1 µM): 0.84
- relative viability (NCI-H2023; first compound 0.01 µM): 0.574
- relative viability (NCI-H2023; first compound 0.03162 µM): 0.589
- relative viability (NCI-H2023; first compound 0.1 µM): 0.663
- relative viability (NCI-H2023; first compound 0.3162 µM): 0.616
- relative viability (NCI-H2023; first compound 1 µM): 0.586
- relative viability (NCI-H2347; first compound 0.01 µM): 0.805
- relative viability (NCI-H2347; first compound 0.03162 µM): 0.661
- relative viability (NCI-H2347; first compound 0.1 µM): 0.739
- relative viability (NCI-H2347; first compound 0.3162 µM): 0.584
- relative viability (NCI-H2347; first compound 1 µM): 0.76
- relative viability (NCI-H1734; first compound 0.01 µM): 0.766
- relative viability (NCI-H1734; first compound 0.03162 µM): 0.678
- relative viability (NCI-H1734; first compound 0.1 µM): 0.699
- relative viability (NCI-H1734; first compound 0.3162 µM): 0.61
- relative viability (NCI-H1734; first compound 1 µM): 0.642
- relative viability (NCI-H1650; first compound 0.03162 µM): 0.906
- relative viability (NCI-H1650; first compound 0.1 µM): 0.872
- relative viability (NCI-H1650; first compound 0.3162 µM): 0.826
- relative viability (NCI-H1650; first compound 1 µM): 0.921
